Laboratory results as given in paper PMC11696576, “Next generation thiazolyl ketone inhibitors of cytosolic phospholipase A2 α for targeted cancer therapy” (Nature Communications, 2025).
Values joined by “and” are separate entries in the source; they are usually repeats but may differ in a detail not shown here. Identical values can stand only once. Like-named read-outs stand apart in the source and are kept apart here.

Experiments:
SW982 synoviocytes = test: cellular arachidonic acid (AA) release assay, IL-1β stimulated; type: cell-based, human
Text: To test the inhibitory activity of the compounds in cells, we measured their effect on the release of AA from synoviocytes stimulated with IL-1β (Table 2). […] Combined with favorable selectivity and stability it was thus chosen for further evaluation. We looked specifically at how it modulated eicosanoid levels in response to stimulation both in whole blood and in isolated peripheral blood mononuclear cells (PBMCs) and checked for off-target effects on AA metabolism in whole blood by also measuring the effect of GK420 on eicosanoid release in the presence of exogenous free AA.
The human synovial sarcoma cell line SW982 (ATCC, London, UK) was used to measure AA release. The cells were maintained in Dulbecco’s Modified Eagle Medium (DMEM) supplemented with 10% FBS, 0.1 mg/mL gentamicin, and 0.3 mg/mL L-glutamine at 37 °C with 10% CO2, and experiments were performed at 3 days post-confluence. To measure AA release, the cells were labeled overnight with ^3H-AA (0.4 μCi/mL) in serum-free DMEM and then washed twice with PBS containing fBSA (2 mg/mL) to remove unincorporated radioactivity. The inhibitors, or DMSO vehicle control, were subsequently added to the cells for 1 hour prior to stimulation with 10 ng/mL IL-1β for 4 h. Supernatants were collected and centrifuged at 300 × g for 5 min to clear them of detached cells and adherent cells were dissolved in 1 N NaOH. The ^3H-AA was assessed by liquid scintillation counting (LS 6500 Multi-Purpose Scintillation Counter, Beckman Coulter, Inc., USA) and the results are given as the inhibition of released ^3H-AA in the supernatants relative to total ^3H-AA incorporated into the cells, as described. EC50 values were calculated by fitting the % inhibition data to a three-parameter dose-response curve in GraphPad prism v10.4.0. Experiments were performed in technical triplicates and repeated at least three times.

[1] = stability in human plasma (LC-MS/MS); type: in vitro ADME
Procedure: The stability of the analogs in human plasma was studied over approximately 24 h by LC-MS/MS and the results at 4 h and the final timepoint (20–25 h) are included in Table 1.
The metabolic stability of the compounds was determined through in vitro stability assays in human plasma. Solutions of compounds in DMSO (20 mM) were diluted to 5 μg/mL in 50% methanol for infusion into the MS/MS system and spiking of calibration standards and control samples. For the MS detection, positive ionization in ESI mode was used. Good sensitivity, retention and peak shaped were achieved using a gradient with 5 mM ammonium carbamate in water and ammonium carbamate in 90% acetonitrile on a reversed phase column (ACE3AQ). Calibration standards were spiked in a calibration range of 0.5–100 ng/ml. Control samples were spiked at, low, medium, and high concentration levels. The spiked plasma samples were prepared by protein precipitation using acetonitrile containing appropriate internal standard (IS). […] Samples were prepared for analysis by taking 50 μL of plasma sample and adding 100 μL of IS working solution in acetonitrile followed by vortexing at 2500 rpm (Multi-tube vortexer DVX-2500, Henry Troemner LLC, USA) for 2 min. The samples were centrifuged at 5300 rpm (Heraeus Megafuge 1.0 Heraeus, Germany) for 3 min and the supernatant transferred to the autosampler. Recovery was determined by comparing the prepared matrix samples (protein precipitation) with a direct sample (analytes spikes in 67% acetonitrile = injection solution) such that the recovery of the sample preparation and the matrix effects were determined together. Two or three samples were each measured in technical triplicates to give the final % recovery.

secreted GV sPLA2 = target: T1, secreted GV sPLA2 (Homo sapiens, UniProt P39877); test: radioactivity-based mixed micelle assay, GV sPLA2; type: biochemical
T1 sequence (P39877 21-138): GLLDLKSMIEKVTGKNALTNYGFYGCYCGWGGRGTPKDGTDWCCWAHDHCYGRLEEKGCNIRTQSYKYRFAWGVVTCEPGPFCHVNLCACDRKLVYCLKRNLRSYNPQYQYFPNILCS
Procedure: (§1) All synthesized thiazolyl ketones were tested for their in vitro inhibitory activity on recombinant human cPLA2α and selectivity over human calcium-independent GVIA iPLA2 and secreted GV sPLA2 using our previously described group-specific radioactivity-based mixed micelle assays. The inhibition results are presented either as per cent inhibition or as XI(50) values in Table 1. […] The XI(50) is defined as the mole fraction of the inhibitor in the total substrate interface required to inhibit the enzyme activity by 50%. For comparison purposes, previously published data for the inhibitor GK470[19] are included. […] Inhibitors were initially screened at 0.091 mol fraction (5 μL of 5 mM inhibitor in DMSO) in substrate (495 μL) in technical triplicates. […] The XI(50) value and stdev values reported are for the entire curve. This analysis was performed in GraphPad Prism v6.

recombinant human cPLA2α = target: T2, recombinant human cPLA2α (Homo sapiens, UniProt P47712); test: radioactivity-based mixed micelle assay, cPLA2α; type: biochemical
T2 sequence (P47712 1-749): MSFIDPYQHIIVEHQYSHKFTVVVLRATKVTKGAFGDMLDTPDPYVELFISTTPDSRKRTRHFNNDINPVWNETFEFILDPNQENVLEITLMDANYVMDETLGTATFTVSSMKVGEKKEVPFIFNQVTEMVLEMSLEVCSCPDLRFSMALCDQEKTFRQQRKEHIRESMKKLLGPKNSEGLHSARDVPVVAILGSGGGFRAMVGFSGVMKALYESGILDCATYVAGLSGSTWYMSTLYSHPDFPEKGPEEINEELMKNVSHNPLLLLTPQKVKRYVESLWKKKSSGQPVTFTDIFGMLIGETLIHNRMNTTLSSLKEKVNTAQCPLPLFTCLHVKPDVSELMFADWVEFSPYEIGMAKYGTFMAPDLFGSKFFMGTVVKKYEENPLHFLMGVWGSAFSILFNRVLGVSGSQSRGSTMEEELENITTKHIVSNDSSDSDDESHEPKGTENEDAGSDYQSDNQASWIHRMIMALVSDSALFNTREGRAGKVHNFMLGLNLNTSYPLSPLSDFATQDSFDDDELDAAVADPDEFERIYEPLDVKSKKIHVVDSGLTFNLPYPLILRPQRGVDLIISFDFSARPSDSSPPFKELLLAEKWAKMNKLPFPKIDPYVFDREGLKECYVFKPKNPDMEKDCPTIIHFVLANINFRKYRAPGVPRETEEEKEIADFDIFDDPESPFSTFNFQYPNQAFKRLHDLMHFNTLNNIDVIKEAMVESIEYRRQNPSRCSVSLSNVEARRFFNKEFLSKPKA
Procedure: as §1

[2] = individual sample, human plasma

Q: For CCCCCCCOc1ccc(OCC(=O)c2nc(C(=O)OC)cs2)cc1 [GK420], which “% inhibition of stimulated AA release” value (SW982 synoviocytes; 0.2 µM, individual biological replicate) is on record?
A: 55.97% and 44.95% and 68.85% and 89.01%

Q: And the “% inhibition of stimulated AA release” value (SW982 synoviocytes; 1 µM, individual biological replicate)?
A: 102.49% and 78.04% and 96.65% and 110.97%

Q: What about the “% inhibition of stimulated AA release” value (SW982 synoviocytes; 5 µM, individual biological replicate) of the same molecule?
A: 103.28% and 116.15% and 112.68%

Q: What about the inhibition at 5 µM (SW982 synoviocytes; Homo sapiens, SW982, 5 µM, individual biological replicate) of the same molecule?
A: 119%

Q: And the inhibition at 1 µM (SW982 synoviocytes; Homo sapiens, SW982, 4 h, 1 µM inhibitor, IL-1β 4 h, mean ± stdev, read-out: AA release % Inhib)?
A: 97 ± 14%

Q: And the EC50 (SW982 synoviocytes; Homo sapiens, SW982, IL-1β 4 h, 0.2, 1 or 5 µM inhibitor, read-out: AA release EC50 µM (95% CI))?
A: 0.09 µM

Q: What about the IC50 (SW982 synoviocytes; Homo sapiens, SW982, [Agonist] vs. Response (three parameters), concentration in µM, read-out: logEC50 best-fit value, AA release (converted)) of the same molecule?
A: 0.0942 µM

Q: And the EC50 (SW982 synoviocytes; Homo sapiens, SW982, [Agonist] vs. Response (three parameters), read-out: EC50 best-fit value, AA release)?
A: 0.0943 µM

Q: And the “Stability in human plasma 4 h” value ([1]; % of the compound remaining after 4 h)?
A: 63.3%

Q: What about the “Stability in human plasma 20+ h” value ([1]; % of the compound remaining after 20 h) of the same molecule?
A: 18.05%

Q: And the “plasma stability 4h (%)” value [1, 2]?
A: 64.7% and 61.9%

Q: What about the “plasma stability 20h (%)” value [1, 2] of the same molecule?
A: 19.1% and 17%

Q: What about the inhibition at 0.091 mole fraction (secreted GV sPLA2; 0.091 mole fraction, read-out: GV sPLA2 % Inhib) of the same molecule?
A: 46%

Q: And the inhibition at 0.091 mole fraction (secreted GV sPLA2; average of triplicates, read-out: sPLA2 % inhibition at 0.091 mole fraction, average)?
A: 46.4%

Q: What about the inhibition at 0.091 mole fraction (secreted GV sPLA2; individual technical replicate, read-out: sPLA2 % inhibition at 0.091 mole fraction) of the same molecule?
A: 48.2%

Q: And the inhibition at 0.091 mole fraction (recombinant human cPLA2α; 0.091 mole fraction, read-out: cPLA2α % Inhib)?
A: 98%

Q: What about the “cPLA2α XI(50)” value (recombinant human cPLA2α; XI(50) ± stdev, mole fraction of inhibitor in total substrate interface for 50% inhibition) of the same molecule?
A: 0.0016 mole fraction and 0.0016 ± 0.0002 mole fraction

Q: And the “times more potent than GK470” value (recombinant human cPLA2α; cPLA2α XI(50) relative to GK470)?
A: 7–11

Q: What about the inhibition at 0.091 mole fraction (recombinant human cPLA2α; individual technical replicate, read-out: cPLA2 % inhibition at 0.091 mole fraction) of the same molecule?
A: 97.2%
